Results reported in ChEMBL document CHEMBL5365463, “Identification of a Self-Assembling Small-Molecule Cancer Vaccine Adjuvant with an Improved Toxicity Profile” (J Med Chem, 2023).
Active and inactive are the calls of the source. The calls are words filed in the database; no cut-off is given here.

Experiments:
[1] = species: Mus musculus; assay: Induction of immune response in C57BL/6 mouse assessed as increase in total CD8+T cells percentage in spleen at 100 ug measured after 35 days by flow cytometry analysis; type: functional, organism-based; details: dose 100.0 µg, time 35.0 day
[2] = Toxicity in C57BL/6 mouse assessed as effect on body weight at 500 ug measured from day 9 to 21; details: in vivo, 312 h, dose 500 µg, time 13 day
[3] = Toxicity in C57BL/6 mouse assessed as effect on AST level in serum at 500 ug measured after 1 day after immunization; details: 24 h, dose 500 µg
[4] = tested on: BMDC; assay: Cytotoxicity against mouse BMDC cells at 80 uM incubated for 24 hrs by Celltiter-Glo luminescence assay; type: toxicity, cell-based
[5] = tested on: RAW264.7; assay: Induction of apoptosis in mouse RAW264.7 cells assessed as necrotic cells at 10 uM by flow cytometry analysis (reference value: 20.6 %); type: functional
[6] = Toxicity in C57BL/6 mouse assessed as effect on spleen at 500 ug, sc by H and E staining based analysis; type: organism-based; details: in vivo, dose 500 µg
[7] = tested on: RAW264.7; assay: Induction of apoptosis in mouse RAW264.7 cells assessed as necrotic cells at 8 uM by flow cytometry analysis (reference value: 20.6 %); type: functional
[8] = Toxicity in BALB/c mouse assessed as reduction in platelet count measured after 16 hrs; details: dose 100-1000 µg
[9] = tested on: BMDC; assay: Induction of immune response in TLR7 knockout mouse BMDC cells assessed as increase in MIP-1alpha production at 10 to 100 uM incubated for 24 hrs by ELISA method; type: functional, cell-based; details: dose 10-100 µM
[10] = tested on: BMDC; assay: Induction of immune response in TLR7 knockout mouse BMDC cells assessed as increase in CXCL10 production at 10 to 100 uM incubated for 24 hrs by ELISA method; type: functional, cell-based; details: dose 10-100 µM
[11] = tested on: RAW264.7; assay: Induction of apoptosis in mouse RAW264.7 cells assessed as necrotic cells at 16 uM by flow cytometry analysis (reference value: 20.6 %); type: functional
[12] = tested on: BMDC; assay: Induction of immune response in TLR7 knockout mouse BMDC cells assessed as increase in TNF-alpha production at 10 to 100 uM incubated for 24 hrs by ELISA method; type: functional, cell-based; details: dose 10-100 µM
[13] = tested on: RAW264.7; assay: Induction of apoptosis in mouse RAW264.7 cells assessed as necrotic cells at 4 uM by flow cytometry analysis (reference value: 20.6 %); type: functional
[14] = tested on: BMDC; assay: Upregulation of CD86 expression in mouse BMDC cells at 5 to 50 uM measured after 24 hrs in presence of OVAp by flow cytometry analysis; type: functional, cell-based; details: dose 5-50 µM
[15] = Toxicity in C57BL/6 mouse assessed as effect on ALP level in serum at 500 ug measured after 1 day after immunization; details: 24 h, dose 500 µg
[16] = Toxicity in C57BL/6 mouse assessed as effect on lung at 500 ug, sc by H and E staining based analysis; type: organism-based; details: in vivo, dose 500 µg
[17] = tested on: RAW264.7; assay: Induction of apoptosis in mouse RAW264.7 cells assessed as live cells at 12 uM by flow cytometry analysis (reference value: 75.4 %); type: functional
[18] = Toxicity in C57BL/6 mouse assessed as effect on heart at 500 ug, sc by H and E staining based analysis; type: organism-based; details: in vivo, dose 500 µg
[19] = tested on: B16-OVA melanoma cell; assay: Antitumor activity against mouse B16-OVA melanoma cell xenografted in C57BL/6 mouse assessed as at 500 ug administered 5 times for every 2 days from day 9 to 17; type: functional, cell-based; details: dose 500.0 µg, time 9.0 day
[20] = species: Mus musculus; assay: Induction of immune response in OVAp immunized C57BL/6 mouse assessed as increase in number of antigen-specific IFN-gamma+ CD44+ CD8+ T cells in spleen at 100 ug measured after 35 days by flow cytometry analysis; type: functional, organism-based; details: T-cell, dose 100.0 µg, time 35.0 day
[21] = tested on: RAW264.7; assay: Induction of apoptosis in mouse RAW264.7 cells assessed as apoptotic cells at 16 uM by flow cytometry analysis (reference value: 3.26 %); type: functional
[22] = Antitumor activity against mouse B16-OVA melanoma cell xenografted in C57BL/6 mouse assessed as fold increase in CD8+T cells at 500 ug, sc in presence of OVAp by flow cytometry analysis; type: functional; details: dose 500 µg
[23] = tested on: BMDC; assay: Induction of immune response in TLR7 knockout mouse BMDC cells assessed as increase in IFN-beta production at 10 to 100 uM incubated for 24 hrs by ELISA method; type: functional, cell-based; details: dose 10-100 µM
[24] = Toxicity in BALB/c mouse assessed as reduction in leukocyte count measured after 16 hrs; details: dose 100-1000 µg
[25] = tested on: RAW264.7; assay: Induction of apoptosis in mouse RAW264.7 cells assessed as apoptotic cells at 8 uM by flow cytometry analysis (reference value: 3.26 %); type: functional
[26] = Toxicity in C57BL/6 mouse assessed as effect on ALB level in serum at 500 ug measured after 1 day after immunization; details: 24 h, dose 500 µg
[27] = tested on: BMDC; assay: Induction of immune response in TLR7 knockout mouse BMDC cells assessed as increase in IL-6 production at 10 to 100 uM incubated for 24 hrs by ELISA method; type: functional, cell-based; details: dose 10-100 µM
[28] = Upregulation of CD86 expression in mouse BMDC cells assessed as fold increase at 5 to 50 uM measured after 24 hrs in presence of OVAp by flow cytometry analysis; type: functional; details: dose 5-50 µM
[29] = Upregulation of CD40 expression in mouse RAW264.7 cells assessed as fold increase in fluorescence intensity at 20 uM measured after 24 hrs by flow cytometry analysis; type: functional
[30] = tested on: RAW264.7; assay: Upregulation of CD86 expression in mouse RAW264.7 cells measured after 24 hrs by flow cytometry analysis; type: functional, cell-based; details: dose 10-50 µM
[31] = tested on: RAW264.7; assay: Induction of apoptosis in mouse RAW264.7 cells assessed as live cells at 16 uM by flow cytometry analysis (reference value: 75.4 %); type: functional
[32] = Toxicity in BALB/c mouse assessed as effect on body weight loss at 1000 ug measured after 16 hrs in presence of hemagglutinin; details: in vivo, dose 1000 µg
[33] = tested on: RAW264.7; assay: Induction of apoptosis in mouse RAW264.7 cells assessed as live cells at 4 uM by flow cytometry analysis (reference value: 75.4 %); type: functional
[34] = species: Mus musculus; assay: Induction of immune response in OVAp immunized C57BL/6 mouse assessed as fold increase in IFN-gamma+ cytotoxic T lymphocytes at 100 ug measured after 35 days by flow cytometry analysis; type: functional, T-cell; details: dose 100 µg; time 35 day
[35] = Toxicity in C57BL/6 mouse assessed as effect on urea level in serum at 500 ug measured after 1 day after immunization; details: 24 h, dose 500 µg
[36] = Toxicity in BALB/c mouse assessed as increase in Timp1 expression at 100 to 1000 ug measured after 16 hrs in presence of hemagglutinin; details: in vivo, dose 100-1000 µg
[37] = Antitumor activity against mouse B16-OVA melanoma cell xenografted in C57BL/6 mouse assessed as fold increase in IFN-gamma+TNF-alpha+ at 500 ug, sc in presence of OVAp by flow cytometry analysis; type: functional; details: dose 500 µg
[38] = tested on: RAW264.7; assay: Upregulation of CD40 expression in mouse RAW264.7 cells measured after 24 hrs by flow cytometry analysis; type: functional, cell-based; details: dose 10-50 µM

Question: For `C[C@H](CCC(=O)NCCCCCCCNC(=O)CC[C@@H](C)[C@H]1CC[C@H]2[C@@H]3CC[C@@H]4C[C@H](O)CC[C@]4(C)[C@H]3C[C@H](O)[C@]12C)[C@H]1CC[C@H]2[C@@H]3CC[C@@H]4C[C@H](O)CC[C@]4(C)[C@H]3C[C@H](O)[C@]12C`, which Activity [1] is on record?
Answer: The Activity was “Active”.

Question: What about the Activity [2] of the same compound?
Answer: The Activity was “Non-Toxic”.

Question: What about the Activity [3] of the same compound?
Answer: The Activity was “Non-Toxic”.

Question: What about the Activity [4] of the same compound?
Answer: The Activity was “Non-Toxic”.

Question: And the Activity [5]?
Answer: Its Activity is 28.6%.

Question: What about the Activity [6] of the same compound?
Answer: Its Activity is “Non-Toxic”.

Question: What about the Activity [7] of the same compound?
Answer: Its Activity is 36.1%.

Question: And the Activity [8]?
Answer: Its Activity is “Dose-Dependent Effect”.

Question: And the Activity [9]?
Answer: Its Activity is “inactive”.

Question: What about the Activity [10] of the same compound?
Answer: The Activity was “inactive”.

Question: And the Activity [11]?
Answer: The Activity was 34%.

Question: What about the Activity [12] of the same compound?
Answer: Its Activity is “inactive”.

Question: And the Activity [13]?
Answer: Its Activity is 19%.

Question: And the Activity [14]?
Answer: The Activity was “Active”.

Question: And the Activity [15]?
Answer: Its Activity is “Non-Toxic”.

Question: What about the Activity [16] of the same compound?
Answer: The Activity was “Non-Toxic”.

Question: And the Activity [17]?
Answer: The Activity was 66.8%.

Question: And the Activity [18]?
Answer: The Activity was “Non-Toxic”.

Question: And the Activity [19]?
Answer: Its Activity is “inactive”.

Question: What about the Activity [20] of the same compound?
Answer: The Activity was “Active”.

Question: And the Activity [21]?
Answer: Its Activity is 0.63%.

Question: What about the “fold change (FC)” value [22] of the same compound?
Answer: Its value is 6.3.

Question: And the Activity [23]?
Answer: Its Activity is “inactive”.

Question: What about the Activity [24] of the same compound?
Answer: The Activity was “Non-Toxic”.

Question: What about the Activity [25] of the same compound?
Answer: The Activity was 1.47%.

Question: What about the Activity [26] of the same compound?
Answer: Its Activity is “Non-Toxic”.

Question: And the Activity [27]?
Answer: Its Activity is “inactive”.

Question: And the “fold change (FC)” value [28]?
Answer: Its value is 1.2.

Question: What about the “fold change (FC)” value [29] of the same compound?
Answer: Its value is 1.3.

Question: And the Activity [30]?
Answer: Its Activity is “Dose-Dependent Effect”.

Question: What about the Activity [31] of the same compound?
Answer: Its Activity is 63.4%.

Question: And the Activity [32]?
Answer: The Activity was “Non-Toxic”.

Question: And the Activity [33]?
Answer: The Activity was 77.8%.

Question: What about the “fold change (FC)” value [34] of the same compound?
Answer: Its value is 7.6.

Question: And the Activity [35]?
Answer: The Activity was “Non-Toxic”.

Question: What about the Activity [36] of the same compound?
Answer: Its Activity is “Non-Toxic”.

Question: And the “fold change (FC)” value [37]?
Answer: The value was 2.8.

Question: What about the Activity [38] of the same compound?
Answer: Its Activity is “Dose-Dependent Effect”.
